Test system: 217524-143-R1-J4-PDC spheroids with HUVEC/MSC, viability
Assay: Anticancer human tumor 217524-143-R1-J4-PDC patient-derived pancreatic carcinoma cell line growth inhibition [CLK]
Settings: for IC50: curve of first compound; for viability, T/C: stronger effect = lower value
How it was run: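 Patient-derived tumor cells grown as complex spheroids with HUVEC endothelial cells and mesenchymal stem cells, treated with drug combinations. Concentrations descend in half-log steps from near clinical Cmax, or from 10 microM if Cmax unknown.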

[1] = second compound 0.0316 µM, first compound 0.0316 µM
[2] = second compound 0.0316 µM, first compound 0.1 µM
[3] = second compound 0.0316 µM, first compound 0.316 µM
[4] = second compound 0.0316 µM, first compound 1 µM
[5] = second compound 0.0316 µM, first compound 3.16 µM
[6] = second compound 0.0316 µM, first compound 10 µM
[7] = second compound 0.1 µM, first compound 0.0316 µM
[8] = second compound 0.1 µM, first compound 0.1 µM
[9] = second compound 0.1 µM, first compound 0.316 µM
[10] = second compound 0.1 µM, first compound 1 µM
[11] = second compound 0.1 µM, first compound 3.16 µM
[12] = second compound 0.1 µM, first compound 10 µM
[13] = second compound 0.316 µM, first compound 0.0316 µM
[14] = second compound 0.316 µM, first compound 0.1 µM
[15] = second compound 0.316 µM, first compound 0.316 µM
[16] = second compound 0.316 µM, first compound 1 µM
[17] = second compound 0.316 µM, first compound 3.16 µM
[18] = second compound 0.316 µM, first compound 10 µM
[19] = second compound 1 µM, first compound 0.0316 µM
[20] = second compound 1 µM, first compound 0.1 µM
[21] = second compound 1 µM, first compound 0.316 µM
[22] = second compound 1 µM, first compound 1 µM
[23] = second compound 1 µM, first compound 3.16 µM
[24] = second compound 1 µM, first compound 10 µM
[25] = second compound 3.16 µM, first compound 0.0316 µM
[26] = second compound 3.16 µM, first compound 0.1 µM
[27] = second compound 3.16 µM, first compound 0.316 µM
[28] = second compound 3.16 µM, first compound 1 µM
[29] = second compound 3.16 µM, first compound 3.16 µM
[30] = second compound 3.16 µM, first compound 10 µM
[31] = second compound 10 µM, first compound 0.0316 µM
[32] = second compound 10 µM, first compound 0.1 µM
[33] = second compound 10 µM, first compound 0.316 µM
[34] = second compound 10 µM, first compound 1 µM
[35] = second compound 10 µM, first compound 3.16 µM
[36] = second compound 10 µM, first compound 10 µM
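Also: spheroids exposed to agents for seven days before reading.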
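For viability, T/C in this document: 100% = DMSO vehicle control viability.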

For `Nc1ccccc1NC(=O)c1ccc(CNC(=O)OCc2cccnc2)cc1` + CN1CCN(c2cc(C(=O)Nc3cc4cc(-c5cnn(C)c5)ccc4cn3)ccn2)CC1, the IC50 (second compound 0.0316 µM) was 3.75 µM, the IC50 (second compound 0.1 µM) was 1.98 µM and the IC50 (second compound 0.316 µM) was under 0.0316 µM. The IC50 (second compound 1 µM) was under 0.0316 µM, the IC50 (second compound 3.16 µM) was under 0.0316 µM and the IC50 (second compound 10 µM) was under 0.0316 µM. It also gave a viability, T/C [1] of 84.2%, a viability, T/C [2] of 84.9% and a viability, T/C [3] of 80.2%. The viability, T/C [4] was 66.5%, the viability, T/C [5] was 57.4% and the viability, T/C [6] was 23.1%. The viability, T/C [7] was 65.5%, the viability, T/C [8] was 61.1% and the viability, T/C [9] was 63.5%. It also gave a viability, T/C [10] of 60.8%, a viability, T/C [11] of 42.6% and a viability, T/C [12] of 19.9%. The viability, T/C [13] was 18.9%, the viability, T/C [14] was 20.2% and the viability, T/C [15] was 27.3%. For the same compound, the viability, T/C [16] was 39.2%, the viability, T/C [17] was 28.9% and the viability, T/C [18] was 5.46%. It also gave a viability, T/C [19] of 1.9%, a viability, T/C [20] of 1.63% and a viability, T/C [21] of 1.82%. It also gave a viability, T/C [22] of 1.83%, a viability, T/C [23] of 0.8% and a viability, T/C [24] of 0.38%. For the same compound, the viability, T/C [25] was 0.79%, the viability, T/C [26] was 1.03% and the viability, T/C [27] was 0.98%. The viability, T/C [28] was 0.64%, the viability, T/C [29] was 0.44% and the viability, T/C [30] was 0.54%. It also gave a viability, T/C [31] of 0.13%, a viability, T/C [32] of 0.21% and a viability, T/C [33] of 0.25%. For the same compound, the viability, T/C [34] was 0.2%, the viability, T/C [35] was 0.23% and the viability, T/C [36] was 0.3%.

In the case of `CC(CO)NC(=O)c1cc(-c2ccc(Cl)cc2)nn(-c2cnn(C)c2)c1=O` (centres undefined) + CNC(=O)c1ccc(Nc2nc(OC3CCCC3)c3c(-c4ccc5nc(C)oc5c4)c[nH]c3n2)c(OC)c1, the IC50 (second compound 0.0316 µM) is reported as over 10 µM, the IC50 (second compound 0.1 µM) is reported as under 0.0316 µM and the IC50 (second compound 0.316 µM) is reported as under 0.0316 µM. For the same compound, the IC50 (second compound 1 µM) was under 0.0316 µM, the IC50 (second compound 3.16 µM) was under 0.0316 µM and the IC50 (second compound 10 µM) was under 0.0316 µM. For the same compound, the viability, T/C [1] was 101%, the viability, T/C [2] was 81.4% and the viability, T/C [3] was 86.5%. The viability, T/C [4] was 105%, the viability, T/C [5] was 106% and the viability, T/C [6] was 84.2%. For the same compound, the viability, T/C [7] was 44.8%, the viability, T/C [8] was 42.2% and the viability, T/C [9] was 46.1%. The viability, T/C [10] was 51.3%, the viability, T/C [11] was 47.4% and the viability, T/C [12] was 43.5%. For the same compound, the viability, T/C [13] was 48.2%, the viability, T/C [14] was 39.8% and the viability, T/C [15] was 44.8%. For the same compound, the viability, T/C [16] was 40.1%, the viability, T/C [17] was 38.9% and the viability, T/C [18] was 38.7%. For the same compound, the viability, T/C [19] was 26.2%, the viability, T/C [20] was 30.1% and the viability, T/C [21] was 26.2%. The viability, T/C [22] was 32.7%, the viability, T/C [23] was 28.3% and the viability, T/C [24] was 25%. It also gave a viability, T/C [25] of 33.1%, a viability, T/C [26] of 26.2% and a viability, T/C [27] of 32.4%. It also gave a viability, T/C [28] of 31.8%, a viability, T/C [29] of 28.8% and a viability, T/C [30] of 20.9%. For the same compound, the viability, T/C [31] was 31.3%, the viability, T/C [32] was 25.7% and the viability, T/C [33] was 24.1%. It also gave a viability, T/C [34] of 24.4%, a viability, T/C [35] of 24.7% and a viability, T/C [36] of 20.6%.

Reference: PubChem BioAssay AID2060624 (Molecular Pharmacology Branch, DTP, NCI, 2025)
